Laboratory results as given in patent US8012956B2, “Tropane compounds” (Exelixis, Inc., priority 2007, dated 2011).

Biological target: HSP90 (Homo sapiens, UniProt P07900)
Experiment: HSP90 inhibition (HSP90 IC50)
Format: biochemical

| IC50 [nM] | SMILES |
| --- | --- |
| 1000 to 2000 | COc1cccc(C(=O)N[C@H]2C[C@H]3CC[C@@H](C2)N3c2ccc(C(=O)NCc3cccc(F)c3)cn2)c1C [N-[(3-fluorophenyl)methyl]-6-[3-endo-({[2-methyl-3-(methyloxy)phenyl]carbonyl}amino)-8-azabicyclo[3.2.1]oct-8-yl]pyridine-3-carboxamide] |
| < 500 | COc1cccc(C(=O)N[C@H]2C[C@H]3CC[C@@H](C2)N3c2ccc(C(=O)NCc3c(F)cccc3Cl)cn2)c1C [N-[(2-chloro-6-fluorophenyl)methyl]-6-[3-endo-({[2-methyl-3-(methyloxy)phenyl]carbonyl}amino)-8-azabicyclo[3.2.1]oct-8-yl]pyridine-3-carboxamide] |
| < 500 | COc1cccc(C(=O)N[C@H]2C[C@H]3CC[C@@H](C2)N3c2ccc(C(=O)NCc3ccc4c(c3)OCO4)cn2)c1C [N-(1,3-benzodioxol-5-ylmethyl)-6-[3-endo-({[2-methyl-3-(methyloxy)phenyl]carbonyl}amino)-8-azabicyclo[3.2.1]oct-8-yl]pyridine-3-carboxamide] |
| 500 to 999 | COc1cccc(C(=O)NC2CC3CCC(C2)N3c2ccc(C(=O)N[C@H]3CCN(Cc4ccccc4)C3)cn2)c1C (stereo partly drawn) [6-[3-endo-({[2-methyl-3-(methyloxy)phenyl]carbonyl}amino)-8-azabicyclo[3.2.1]oct-8-yl]-N-[(3S)-1-(phenylmethyl)pyrrolidin-3-yl]pyridine-3-carboxamide] |
| < 500 | COc1cccc(C(=O)N[C@H]2C[C@H]3CC[C@@H](C2)N3c2ccc(C(=O)NCc3ccc(F)c(F)c3)cn2)c1C [N-[(3,4-difluorophenyl)methyl]-6-[3-endo-({(2-methyl-3-(methyloxy)phenyl]carbonyl}amino)-8-azablcyclo[3.2.1]oct-8-yl]pyridine-3-carboxamide] |

The next lines start with the molecule.

| SMILES | IC50 [nM] |
| --- | --- |
| COc1cccc(C(=O)NC2CC3CCC(C2)N3c2ccc(C(=O)NC3CCCNC3)cn2)c1C (stereo not drawn) [6-[3-endo-({[2-methyl-3-(methyloxy)phenyl]carbonyl}amino)-8-azabicyclo[3.2.1]oct-8-yl]-N-piperidin-3-ylpyridine-3-carboxamide] | 500 to 999 |
| C[C@H](NC(=O)c1ccc(N2C3CCC2CC(NC(=O)c2ccc(C(N)=O)c(NCCN4CCOCC4)c2)C3)nc1)c1ccc(N2CCN(C)CC2)cc1 (stereo partly drawn) [N4-(8-{5-[({(1S)-1-[4-(4-methylpiperazin-1-yl)phenyl]ethyl}amino)carbonyl]pyridin-2-yl}-8-azabicyclo[3.2.1]oct-3-endo-yl)-2-[(2-morpholin-4-ylethyl)amino]benzene-1,4-dicarboxamide] | < 500 |
| Cc1cc(C(N)=O)ccc1C(=O)N[C@H]1C[C@H]2CC[C@@H](C1)N2c1ccc(C(=O)NCc2ccccc2)cn1 [2-methyl-N 1-[8-(5-{[(phenylmethyl)amino]carbonyl}pyridin-2-yl)-8-azabicyclo[3.2.1]oct-3-endo-yl]benzene-1,4-dicarboxamide] | 500 to 999 |
| CC(=O)c1ccc(N2[C@@H]3CC[C@H]2C[C@@H](NC(=O)c2ccc(C(N)=O)c(NC4CCNC4)c2)C3)nc1 (stereo partly drawn) [N4-[8-(5-acetylpyridin-2-yl)-8-azabicyclo[3.2.1]oct.3-endo-yl]-2-(pyrrolidin-3-ylamino)benzene-1,4-dicarboxamide] | < 500 |
| NC(=O)c1ccc(C(=O)N[C@H]2C[C@H]3CC[C@@H](C2)N3c2ccc(C(=O)C3CC3)cn2)cc1NCC(F)(F)C(F)(F)F [N4-{8-[5-(cyclopropylcarbonyl)pyridln-2-yl]-8-azabicyclo[3.2.1]oct-3-endo-yl}-2-[(2,2,3,3,3-pentafluoropropyl)amino]benzene-1,4-dicarboxamide] | < 500 |
| CC(=O)c1ccc(N2[C@@H]3CC[C@H]2C[C@@H](NC(=O)c2ccc(C(N)=O)c(NCC4CCCNC4)c2)C3)nc1 (stereo partly drawn) [N4-(8-(5-acetylpyridin-2-yl)-8-azabicyclo[3.2.1]oct-3-endo-yl]-2-[(piperidin-3-ylmethyl)amino]benzene-1,4-dicarboxamide] | < 500 |
